Test results as given in patent US11173154B2 (priority 2015, dated 2021).
Like-named read-outs stand apart in the source and are kept apart here.

Legend:
C57BL/6J mice [1] = experiment: Cecal ligation puncture (CLP) model; settings: CPT 30 mg/kg i.v. 6 hours and twice at day 2, 60 mg/kg i.p. day 3 post-surgery
C57BL/6J mice [2] = experiment: LPS-induced septic shock model; assay type: in vivo, mouse; settings: LPS 10 mg/kg i.p., CPT 30 mg/kg 30 minutes before and one hour after LPS
spleen of C57BL/6J mice = settings: LPS+CPT, 90 minutes after LPS
[3] = system: GM-CSF, IL-1β, IL-6 and TNFα in mouse serum; experiment: Serum cytokines 4 hours after LPS injection; assay type: in vivo; settings: mice
[4] = system: Legionella pneumophila serogroup 1; settings: guinea pig, in vivo
[5] = system: RNAPII and Top1 at transcriptional start sites; assay type: cell-based; settings: A549, PR8ΔNS1

## CC[C@@]1(O)C(=O)OCc2c1cc1n(c2=O)Cc2cc3ccccc3nc2-1 [CPT, Camptothecin]
C57BL/6J mice [1]
  survival following CLP: improved survival
A549 cells; A549, 0.5 μM CPT, 100 nM TPT, 6 hours p.i.
  DNA damage (H2AX staining) at the concentration used: neither TPT- nor CPT-treated cells displayed DNA damage
A549 cells; A549, selected 0.5 μM CPT, 100 nM TPT
  concentration at which DNA damage was detectable, relative to the concentration selected: 20 times higher
C57BL/6J mice [2]
  survival in lethal endotoxic (septic) shock: rescued animals from lethal endotoxic shock
Spleen of C57BL/6J mice
  cell death in vivo (Live/Dead dye, spleen): without inducing cell death
  inflammatory gene transcription in vivo (spleen): inhibits
[3]
  pro-inflammatory genes and cytokine expression (serum titers): suppression
[4]
  survival rates: improved survival rates
  time to death relative to the control group: delay of death
[5]
  RNAPII at PAMP-induced genes: suppress

## CC[C@@]1(O)C(=O)OCc2c1cc1n(c2=O)Cc2cc3c(CN(C)C)c(O)ccc3nc2-1 [TPT, Topotecan]
A549 cells; human
  concentration at which DNA damage was detectable, relative to the concentration selected: 100 times higher
[5]
  RNAPII at PAMP-induced genes: suppress
